These results are taken from patent US20220227997A1, “Elastomeric silicone compositions comprising glycerol, cyclodextrin and octenidine” (Coloplast A/S, priority 2019, published 2022).

For data set [1], the system named is Proteus mirabilis. The settings on record: suspension test after 5 minutes of exposure; cited from earlier work.
Data set [2] deals with Candida albicans. The conditions noted are these: suspension test after 5 minutes of exposure; cited from earlier work.
Data set [3] has as its system Escherichia coli. The conditions noted are these: suspension test after 5 minutes of exposure; cited from earlier work.
Data set [4] deals with Pseudomonas aeruginosa. The settings on record: suspension test after 5 minutes of exposure; cited from earlier work.
Data set [5] concerns Staphylococcus aureus. The conditions noted are these: suspension test after 5 minutes of exposure; cited from earlier work.
Data set [6] has as its system gram positive and gram negative bacteria. The conditions noted are these: generally; cited from earlier work.
The conditions of data set [7]: in water; estimated by Steward et al.; cited from earlier work.
The nature of data set [8]: Solubilization of octenidine in glycerol. In kind it is physicochemical. The settings on record: without cyclodextrin. The text has this:
Octenidine is an amphiphilic substance therefore its solubility in glycerol is negligible, but may form micelles for higher solubility. In this study β-cyclodextrin (βCD) was used as a tool for allowing significant amounts of hydrophobic substances to be dissolved in hydrophilic media such as glycerol. Cyclodextrins as cyclic oligosaccharides that form host-guest complexes with hydrophobic molecules thereby enabling multiple potential uses. Here octenidine (0.35 g) and β-cyclodextrin (0.3182 g) were added to glycerol. The molar ratio between octenidine and β-cyclodextrin in the example was 2:1. The mixture was heated up to 80° C. and agitated using a magnetic stirrer until a clear solution was obtained (usually no longer than 30 minutes). Obtaining a clear mixture is indicative of successful preparation of a βCD-octenidine complex.

Where a name gives a salt, the structure may show the parent alone. Bounds are passed on as bounds.

Consider `[H]/N=C(\N/C(=N/[H])NCCCCCCNC(=N)NC(=N)Nc1ccc(Cl)cc1)Nc1ccc(Cl)cc1` [Chlorhexidine digluconate], for which the “Effective Concentration” value in data set [1] was over 0.2%; in data set [2], 0.025%; in data set [3], 0.1%; in data set [4] it was over 0.2%; in data set [5], over 0.2%.
In the case of `CCCCCCCCN=c1ccn(CCCCCCCCCCn2ccc(=NCCCCCCCC)cc2)cc1` [Octenidine dihydrochloride, N-octyl-1-[10-(4-octyliminopyridin-1-yl)decyl]pyridin-4-imine dihydro-chloride], the “Effective concentrations in suspension” value in data set [6] is on record as “above 0.005 wt %”. Further, the “Effective Concentration” value in data set [1] is reported as 0.025%; in data set [2], 0.01%; in data set [3], 0.025%; in data set [4], 0.025%; in data set [5] it was 0.025%. The critical micellar concentration in data set [7] is 3.79 mM. Moreover, the solubility in glycerol entry in data set [8] is given as “negligible”.
